13 compounds from US5776929A, “Benzodiazepine derivative” (Shionogi & Co., Ltd., priority 1993, dated 1998) can be followed below.

Like-named read-outs stand apart in the source and are kept apart here.

In one test the target is T1, CCK-A receptor (Mus musculus, UniProt O08786).
T1 construct: crude membrane specimen from mouse pancreas; from tissue; host or cells: pancreas of male ddY mice, crude membranes
T1 sequence (O08786 1-436): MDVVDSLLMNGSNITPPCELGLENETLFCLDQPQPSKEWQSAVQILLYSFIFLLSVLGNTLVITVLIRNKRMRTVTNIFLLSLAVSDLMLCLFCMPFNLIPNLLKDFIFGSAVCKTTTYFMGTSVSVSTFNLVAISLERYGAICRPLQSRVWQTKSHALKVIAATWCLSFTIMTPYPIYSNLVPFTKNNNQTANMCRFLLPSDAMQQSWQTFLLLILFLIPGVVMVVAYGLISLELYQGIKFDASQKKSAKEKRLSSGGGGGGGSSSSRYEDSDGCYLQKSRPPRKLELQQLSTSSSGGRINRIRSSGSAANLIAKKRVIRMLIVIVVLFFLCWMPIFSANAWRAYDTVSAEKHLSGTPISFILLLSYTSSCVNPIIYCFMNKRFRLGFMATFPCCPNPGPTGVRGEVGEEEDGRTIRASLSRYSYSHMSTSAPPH
Kind of test: CCK-A receptor antagonism, displacement of [3H]CCK-8, pancreas crude membrane. Format: binding, mouse (male ddY). As to the method: (§1) Male Hartley guinea pig (450-600 g) or male ddY mouse (24-30 g) were used.
(§2) (2) CCK-A Receptor Antagonism and CCK-B Receptor Antagonism
(§3) Preparation of CCK receptor preparations
(§4) Male ddY mice (24 to 30 g) were killed by decapitation and cerebral cortex (CCK-B) and pancreas (CCK-A) were extracted immediately. Each of cerebral cortex and pancreas was mixed with 50 mM Tris-HCl buffer (pH 7.4) and homogenized with a teflon-glass homogenizer and polytron homogenizer to obtain crude membrane specimens.
(§5) Preparation of test compounds and procedures of displacing assay A 1M solution of a compound to be tested in DMSO is prepared and diluted with 50% DMSO to obtain a ten-fold dilution series.
(§6) The reaction is initiated by the addition of crude membrane specimen to solutions of different concentration each containing [^3 H]CCk-8 (final concentration, 1 nM). The mixture is incubated for 90 min at 25° C., filtered through glass filter with aspiration and washed with a cooled 50 mM Tris buffer. After the addition of Aquazol-2 cocktail the radioactivity is counted. The same procedure was repeated using 50% DMSO solution or Ceruletide (final concentration, 1 μM) instead of a solution of test compound so as to obtain the control value regarding total binding or the value regarding non-specific binding, respectively. […]
(§7) specific binding of control=total binding (cpm)-non-specific binding (cpm); and specific binding of test compound=[…]-non-specific binding (cpm).
For orientation: In a radioligand displacement assay an active substance lowers the binding of a labelled ligand.

For a further test, the target named is T2, gastrin receptor (Cavia porcellus, UniProt H0VZC5).
T2 construct: stomach was extracted from each animal immediately, from which gastric glands were prepared; from tissue; host or cells: gastric (fundic) glands of male Hartley guinea pigs
T2 sequence (H0VZC5 1-426): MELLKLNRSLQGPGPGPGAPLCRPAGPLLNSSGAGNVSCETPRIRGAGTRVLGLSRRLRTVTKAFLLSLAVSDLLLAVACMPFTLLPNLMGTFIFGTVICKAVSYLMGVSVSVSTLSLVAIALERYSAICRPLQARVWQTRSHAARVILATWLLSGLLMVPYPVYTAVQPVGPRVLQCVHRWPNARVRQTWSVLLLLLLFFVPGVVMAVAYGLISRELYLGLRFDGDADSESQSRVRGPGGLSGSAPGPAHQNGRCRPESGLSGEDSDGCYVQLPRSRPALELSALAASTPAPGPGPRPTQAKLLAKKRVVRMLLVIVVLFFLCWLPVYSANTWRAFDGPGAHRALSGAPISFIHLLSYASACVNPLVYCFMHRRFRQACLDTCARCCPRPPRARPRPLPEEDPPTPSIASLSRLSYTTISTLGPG
Kind of test: Gastrin receptor antagonism, displacement of 125I-labeled gastrin, gastric (fundic) gland cells. Type of test: binding, guinea pig (male Hartley). As to the method:
as §1
(1) Gastrin Receptor Antagonism
Preparation of gastric glands:
Male Hartley guinea pigs (450-600 g) were killed by bleeding and stomach was extracted from each animal immediately, from which gastric glands were prepared.
Preparation of test compounds and procedures of displacing assay
A 1M solution of a compound to be tested in DMSO is prepared and diluted with 50% DMSO to obtain a ten-fold dilution series.
The mixture is incubated for 30 min at 25° C., centrifuged at 2000 rpm for 5 min and the supernatant is removed by aspiration. To the pellet is added ice-cooled incubation buffer and mixed gently, followed by an immediate centrifugation and removal of the supernatant by aspiration. The radioactivity is counted on gamma counter. The same procedure was repeated using 50% DMSO solution or human gastrin I (final concentration, 2 μM) instead of a solution of test compound so as to obtain the control value regarding total binding or the value regarding non-specific binding, respectively. […]
as §7

The target of the next test is T3, CCK-B receptor (Mus musculus, UniProt P56481).
T3 construct: crude membrane specimen from mouse cerebral cortex; from tissue; host or cells: cerebral cortex of male ddY mice, crude membranes
T3 sequence (P56481 1-453): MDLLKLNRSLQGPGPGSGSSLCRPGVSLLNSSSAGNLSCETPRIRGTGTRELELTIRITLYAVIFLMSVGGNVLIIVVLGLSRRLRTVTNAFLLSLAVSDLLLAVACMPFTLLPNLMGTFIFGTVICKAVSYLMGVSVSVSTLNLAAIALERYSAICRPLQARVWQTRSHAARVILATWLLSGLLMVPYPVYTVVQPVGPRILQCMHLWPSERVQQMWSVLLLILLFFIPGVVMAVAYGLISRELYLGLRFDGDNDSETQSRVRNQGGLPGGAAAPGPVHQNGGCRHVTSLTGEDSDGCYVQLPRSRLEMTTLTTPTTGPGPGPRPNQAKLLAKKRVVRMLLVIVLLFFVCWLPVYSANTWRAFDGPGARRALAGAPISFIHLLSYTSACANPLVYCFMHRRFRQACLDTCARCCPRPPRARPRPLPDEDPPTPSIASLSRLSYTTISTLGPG
The test can be described thus: CCK-B receptor antagonism, displacement of [3H]CCK-8, cerebral cortex crude membrane. Format: binding, mouse (male ddY). As to the method:
as §1, §2, §3, §4, §5, §6, §7

The mark [1] stands for this setting: mouse pancreas membrane, [3H]CCK-8 1 nM, 90 min, 25 °C, read-out: Receptor CCK-A (IC50).
Where [2] appears, read: guinea pig gastric glands, 125I-gastrin 0.2 nM, 30 min, 25 °C, read-out: Receptor Gastrin (IC50).
Setting [3] is: mouse cerebral cortex membrane, [3H]CCK-8 1 nM, 90 min, 25 °C, read-out: Receptor CCK-B (IC50).

Regarding `Cc1cccc(NC(=O)NC2C(=O)N(CC(=O)OC(C)(C)C)c3ccccc3N(CC(=O)OC(C)(C)C)C2=O)c1` [Compound 8s, 1,5-Bis-(t-butoxycarbonylmethyl)-3-(N'-(m-tolyl)ureido)-1H-1,5-benzodiazepine-2,4(3H,5H)-dione], the IC50 (as a rule, the midpoint of a concentration-inhibition curve) at CCK-A receptor (setting [1]) was 100 nM; on gastrin receptor (setting [2]), 2 nM; at CCK-B receptor (setting [3]), 2 nM.

As to `COC(=O)CCCNC(=O)OCc1cccc(NC(=O)NC2C(=O)N(CC(=O)N3CCCC3)c3ccccc3N(CC(=O)N3CCCC3)C2=O)c1` [Compound 9a, 1,5-Bis-(pyrrolidinecarbonylmethyl)-3-(N'-(3-(3-(carbomethoxy)propylcarbamoyloxymethyl)phenyl)ureido)-1H-1,5-benzodiazepine-2,4(3H,5H) -dione], the IC50 was found to be 2100 nM on CCK-A receptor (setting [1]), 8 nM at gastrin receptor (setting [2]) and 130 nM at CCK-B receptor (setting [3]).

With `COC(=O)CCCNC(=O)OCc1cccc(NC(=O)NC2C(=O)N(CC(=O)N3CCSC3)c3ccccc3N(CC(=O)N3CCSC3)C2=O)c1` [Compound 9b, 1,5-Bis-(thiazolidinecarbonylmethyl)-3-(N'-(3-(3-(carbomethoxy)propylcarbamoyloxymethyl)phenyl)ureido)-1H-1,5-benzodiazepine-2,4(3H,5H)-dione], the IC50 at CCK-A receptor stood at 360 nM; on gastrin receptor, 14 nM; on CCK-B receptor, 120 nM.

For `COC(=O)CCCNC(=O)OCc1cccc(NC(=O)NC2C(=O)N(CC(=O)c3ccccc3C)c3ccccc3N(CC(=O)c3ccccc3C)C2=O)c1` [Compound 9d, 1,5-Bis-(o-methylphenacyl)-3-(N'-(3-(3-(carbomethoxy)propylcarbamoyloxymethyl)phenyl)ureido)-1H-1,5-benzodiazepine-2,4(3H,5H)-dione], the IC50 was < 100 nM at CCK-A receptor (setting [1]), 6 nM on gastrin receptor (setting [2]) and 11 nM on CCK-B receptor (setting [3]).

Regarding `COC(=O)CCCNC(=O)OCc1cccc(NC(=O)NC2C(=O)N(CC(=O)c3ccco3)c3ccccc3N(CC(=O)c3ccco3)C2=O)c1` [Compound 9f, 1,5-Bis-(2-furylcarbonylmethyl)-3-(N'-(3-(3-(carbomethoxy)propylcarbamoyloxymethyl)phenyl)ureido) -1H-1,5-benzodiazepine-2,4(3H,5H)-dione], the IC50 stood at 1400 nM at CCK-A receptor (setting [1]), 7 nM on gastrin receptor (setting [2]) and 62 nM at CCK-B receptor (setting [3]).

`COC(=O)CCCNC(=O)OCc1cccc(NC(=O)NC2C(=O)N(CC(=O)c3cccs3)c3ccccc3N(CC(=O)c3cccs3)C2=O)c1` [Compound 9g]: the IC50 at CCK-A receptor (setting [1]) came out at 420 nM; on gastrin receptor (setting [2]), 3 nM; at CCK-B receptor (setting [3]), 7 nM.

For the compound `COC(=O)CCCNC(=O)OCc1cccc(NC(=O)NC2C(=O)N(CC(=O)C3CC3)c3ccccc3N(CC(=O)C3CC3)C2=O)c1` [Compound 9h, 1,5-Bis-(cyclopropylcarbonylmethyl)-3-(N'-(3-(3-(carbomethoxy)propylcarbamoyloxymethyl)phenyl)ureido)-1H-1,5-benzodiazepine-2,4(3H,5H)-dione], the results for the IC50 at CCK-A receptor (setting [1]), on gastrin receptor (setting [2]) and at CCK-B receptor (setting [3]) were 1250 nM, 4 nM and 20 nM, respectively.

Take `COC(=O)CCCNC(=O)OCc1cccc(NC(=O)NC2C(=O)N(CC(=O)C3CCCC3)c3ccccc3N(CC(=O)C3CCCC3)C2=O)c1` [Compound 9i, 1,5-Bis-(cyclopentylcarbonylmethyl)-3-(N'-(3-(3-(carbomethoxy)propylcarbamoyloxymethyl)phenyl)ureido)-1H-1,5-benzodiazepine-2,4(3H,5H)-dione]: the figures for the IC50 on CCK-A receptor (setting [1]), on gastrin receptor (setting [2]) and at CCK-B receptor (setting [3]) were 290 nM, 7 nM and 2 nM, respectively.

Consider `COC(=O)CCCNC(=O)OCc1cccc(NC(=O)NC2C(=O)N(CC3CC3)c3ccccc3N(CC3CC3)C2=O)c1` [Compound 9o, 1,5-Bis-(cyclopropylmethyl)-3-(N'-(3-(3-(carbomethoxy)propylcarbamoyloxymethyl)phenyl)ureido)-1H-1,5-benzodiazepine-2,4(3H,5H)-dione], for which the values for the 50% inhibitory concentration (IC50) on CCK-A receptor (setting [1]), at gastrin receptor (setting [2]) and at CCK-B receptor (setting [3]) were 3900 nM, 31 nM and 78 nM, respectively.

Regarding `O=C(CN1C(=O)C(NC(=O)Nc2cccc(COC(=O)NCCCC(=O)OCc3ccccc3)c2)C(=O)N(CC(=O)NC2CC2)c2ccccc21)NC1CC1` [Compound 10c, 1,5-Bis-(cyclopropylcarbamoylmethyl)-3-(N'-(3-(3-(benzoyloxycarbonyl)propylcarbamoyloxymethyl)-phenyl)ureido)-1H-1,5-benzodiazepine-2,4 (3H,5H)-dione], the IC50 at CCK-A receptor (setting [1]) turned out to be 2100 nM; on gastrin receptor (setting [2]) it was 64 nM; on CCK-B receptor (setting [3]), 380 nM.

Regarding `CC(C)(C)OC(=O)CN1C(=O)C(NC(=O)Nc2cccc(COC(=O)NCCCC(=O)OCc3ccccc3)c2)C(=O)N(CC(=O)OC(C)(C)C)c2ccccc21` [Compound 10s, 1,5-Bis-(tert-butoxycarbonylmethyl)-3-(N'-(3-(3-(benzyloxycarbonyl)propylcarbamoyloxymethyl)phenyl)-ureido)-1H-1,5-benzodiazepine-2,4(3H,5H)-dione], the IC50 is < 100 nM on CCK-A receptor (setting [1]), 7 nM at gastrin receptor (setting [2]) and 4 nM on CCK-B receptor (setting [3]).

Turning to `O=C(O)CCCNC(=O)OCc1cccc(NC(=O)NC2C(=O)N(CC(=O)c3ccco3)c3ccccc3N(CC(=O)c3ccco3)C2=O)c1` [Compound 11f, 1,5-Bis-(2-furylcarbonylmethyl)-3-(N'-(3-(3-(carboxy)propylcarbamoyloxymethyl)phenyl)ureido)-1H-1,5-benzodiazepine-2,4(3H,5H)-dione], the IC50 at CCK-A receptor (setting [1]) is 800 nM; on gastrin receptor (setting [2]) it was 6 nM; at CCK-B receptor (setting [3]), 38 nM.

`O=C(O)CCCNC(=O)OCc1cccc(NC(=O)NC2C(=O)N(CC3CC3)c3ccccc3N(CC3CC3)C2=O)c1` [Compound 11o, 1,5-Bis-(cyclopropylmethyl)-3-(N'-(3-(3-(carboxy)propylcarbamoyloxymethyl)phenyl)ureido)-1H-1,5-benzodiazepine-2,4(3H,5H)-dione]: the values for the half-maximal inhibitory concentration (IC50) on CCK-A receptor (setting [1]), at gastrin receptor (setting [2]) and at CCK-B receptor (setting [3]) were 1850 nM, 18 nM and 36 nM, respectively.
